From ChEMBL document CHEMBL6153118, “Structure Optimization of Natural Product Catalpol to Obtain Novel and Potent Analogs against Heart Failure” (J Med Chem, 2025)
Activity calls are given as the source filed them. No cut-off for these calls is given here.

Tests used:
H9c2 [1] = experiment: Cytoprotective activity against OGD-induced myocardial ischemic injury in rat H9c2 cells assessed as cell viability at 50 uM preincubated for 12 hrs followed by exposure to OGD condition for 3 hrs by CCK8 assay (reference value: 49.23 to 50.05 %); assay type: functional; settings: time 15 hrs, read-out: Activity
H9c2 [2] = experiment: Cytoprotective activity against OGD-induced myocardial ischemic injury in rat H9c2 cells assessed as decrease in cell death at 5 to 50 uM preincubated for 12 hrs followed by exposure to OGD condition for 3 hrs by crystal violet staining based analysis; assay type: functional; settings: dose 5-50 µM, time 15.0 hrs
Cardiac muscle cell = experiment: Cytoprotective activity against OGD-induced myocardial ischemic injury in neonatal rat primary cardiomyocytes assessed as decrease in cellular damage at 1 uM preincubated for 12 hrs followed by exposure to OGD condition for 3 hrs; assay type: functional, cell-based; settings: time 15.0 hrs
Mus musculus [3] = experiment: Improvement in motor ability in ISO-induced heart failure C57BL/6J mouse assessed as increase in grip strength at 5 to 20 mg/kg/day, po for 14 days; assay type: functional, organism-based; settings: dose 5-20 mg/kg/day, time 14.0 day
Mus musculus [4] = experiment: Improvement in motor ability in ISO-induced heart failure C57BL/6J mouse assessed as increase in time of remote motion with rotarod at 5 to 20 mg/kg/day, po for 14 days; assay type: functional, organism-based; settings: dose 5-20 mg/kg/day, time 14.0 day
H9c2 [5] = experiment: Inhibition of cardiomyocyte hypertrophy in rat H9c2 cells assessed as decrease in ISO-induced ANP level at 50 uM by Western blot analysis; assay type: functional, cell-based
H9c2 [6] = experiment: Inhibition of cardiomyocyte hypertrophy in ISO-treated rat H9c2 cells at 50 uM preincubated for 12 hrs followed by ISO treatment for 36 hrs by FITC-Phalloidin staining based analysis; assay type: functional, cell-based; settings: time 48.0 hrs
Mus musculus [7] = experiment: Inhibition of cardiomyocyte hypertrophy in ISO-induced heart failure C57BL/6J mouse assessed as decrease in ratio of p-GSK-3beta to GSK-3beta levels in heart tissue administered orally daily for 14 days by Western blot analysis; assay type: functional, organism-based; settings: dose 5-20 mg/kg/day, route po, time 14.0 day
CYP1A2 = biological target: T1, CYP1A2 (Homo sapiens, UniProt P05177); experiment: Inhibition of CYP1A2 in human liver microsomes preincubated for 10 mins followed by NADPH addition measured after 10 mins by LC/MS/MS analysis relative to control; assay type: ADME, Microsome; settings: time 20 min
T1 sequence (P05177 whole entry): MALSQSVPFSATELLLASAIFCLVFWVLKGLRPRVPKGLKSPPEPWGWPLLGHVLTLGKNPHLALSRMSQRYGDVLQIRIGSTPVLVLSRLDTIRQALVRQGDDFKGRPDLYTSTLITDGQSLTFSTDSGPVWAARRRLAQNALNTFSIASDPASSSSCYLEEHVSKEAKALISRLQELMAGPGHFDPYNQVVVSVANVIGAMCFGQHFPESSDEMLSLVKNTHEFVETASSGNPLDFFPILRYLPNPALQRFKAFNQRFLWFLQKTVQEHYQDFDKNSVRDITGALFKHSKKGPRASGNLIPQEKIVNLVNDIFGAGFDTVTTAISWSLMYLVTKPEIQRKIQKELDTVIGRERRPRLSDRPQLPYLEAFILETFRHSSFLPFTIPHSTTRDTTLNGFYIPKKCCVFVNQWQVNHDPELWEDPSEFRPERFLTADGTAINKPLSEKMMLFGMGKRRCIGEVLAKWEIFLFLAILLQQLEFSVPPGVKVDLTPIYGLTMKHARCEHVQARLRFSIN

CYP3A4 = CYP3A4 (Homo sapiens, UniProt P08684); experiment: Inhibition of CYP3A4 in human liver microsomes preincubated for 10 mins followed by NADPH addition measured after 10 mins by LC/MS/MS analysis relative to control; assay type: ADME, Microsome; settings: time 20 min
Chain of CYP3A4 (P08684 whole entry): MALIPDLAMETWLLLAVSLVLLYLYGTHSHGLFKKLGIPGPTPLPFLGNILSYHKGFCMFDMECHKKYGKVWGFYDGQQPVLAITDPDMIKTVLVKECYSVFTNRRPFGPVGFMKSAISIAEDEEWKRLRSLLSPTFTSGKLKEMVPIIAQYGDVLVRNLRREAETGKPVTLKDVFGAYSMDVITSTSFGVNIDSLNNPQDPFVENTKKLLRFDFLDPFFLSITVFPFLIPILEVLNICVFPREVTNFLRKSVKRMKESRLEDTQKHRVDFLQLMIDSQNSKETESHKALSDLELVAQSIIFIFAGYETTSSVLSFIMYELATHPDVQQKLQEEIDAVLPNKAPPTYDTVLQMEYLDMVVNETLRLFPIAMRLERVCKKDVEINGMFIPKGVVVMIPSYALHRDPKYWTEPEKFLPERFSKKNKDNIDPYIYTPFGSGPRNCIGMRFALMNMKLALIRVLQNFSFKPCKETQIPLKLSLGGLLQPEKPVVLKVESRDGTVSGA

[8] = biological target: Voltage-gated inwardly rectifying potassium channel KCNH2 (Homo sapiens, UniProt Q12809); experiment: Inhibition of hERG at 30 uM; assay type: toxicity
Chain of Voltage-gated inwardly rectifying potassium channel KCNH2 (Q12809 whole entry): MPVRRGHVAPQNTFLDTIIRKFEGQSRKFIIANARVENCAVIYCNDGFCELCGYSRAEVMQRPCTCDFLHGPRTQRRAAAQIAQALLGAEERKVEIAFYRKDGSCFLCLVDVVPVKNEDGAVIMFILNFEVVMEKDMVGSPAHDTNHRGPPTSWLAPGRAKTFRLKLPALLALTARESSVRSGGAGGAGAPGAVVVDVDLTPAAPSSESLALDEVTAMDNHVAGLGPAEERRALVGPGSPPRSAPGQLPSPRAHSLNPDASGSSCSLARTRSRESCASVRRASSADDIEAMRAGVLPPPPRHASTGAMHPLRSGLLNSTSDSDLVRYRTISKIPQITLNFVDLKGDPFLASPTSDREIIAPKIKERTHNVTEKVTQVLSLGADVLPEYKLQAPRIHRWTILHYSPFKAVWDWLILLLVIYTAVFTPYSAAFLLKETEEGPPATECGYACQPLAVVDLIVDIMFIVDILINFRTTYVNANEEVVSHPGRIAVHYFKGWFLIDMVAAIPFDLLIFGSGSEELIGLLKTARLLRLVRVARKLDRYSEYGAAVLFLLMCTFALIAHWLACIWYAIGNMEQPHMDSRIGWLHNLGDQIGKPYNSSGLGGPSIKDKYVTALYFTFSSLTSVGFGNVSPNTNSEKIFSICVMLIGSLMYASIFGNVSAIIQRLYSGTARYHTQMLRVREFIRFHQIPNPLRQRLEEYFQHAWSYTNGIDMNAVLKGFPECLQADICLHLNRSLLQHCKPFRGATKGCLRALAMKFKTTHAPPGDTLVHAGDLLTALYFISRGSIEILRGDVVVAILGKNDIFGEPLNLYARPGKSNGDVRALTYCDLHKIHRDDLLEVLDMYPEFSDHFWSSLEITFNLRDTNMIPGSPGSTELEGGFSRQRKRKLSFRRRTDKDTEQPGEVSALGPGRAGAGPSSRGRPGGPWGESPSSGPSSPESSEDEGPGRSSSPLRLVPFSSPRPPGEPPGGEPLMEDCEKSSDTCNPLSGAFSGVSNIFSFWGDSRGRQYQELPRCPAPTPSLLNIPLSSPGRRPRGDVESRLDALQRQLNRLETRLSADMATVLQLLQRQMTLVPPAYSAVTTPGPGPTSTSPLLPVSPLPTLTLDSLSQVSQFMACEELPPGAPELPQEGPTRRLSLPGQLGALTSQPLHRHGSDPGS

[9] = Cmax in C57/6J mouse at 5 mg/kg, iv measured for 24 hrs; assay type: ADME, organism-based; settings: in vivo
[10] = Half life in C57/6J mouse at 5 mg/kg, iv measured for 24 hrs; assay type: ADME, organism-based; settings: in vivo
[11] = Tmax in C57/6J mouse at 20 mg/kg, po measured for 24 hrs; assay type: ADME, organism-based; settings: in vivo
[12] = MRT (0 to t) in C57/6J mouse at 20 mg/kg, po measured for 24 hrs; assay type: ADME, organism-based; settings: in vivo

## OC[C@H]1O[C@@H](O[C@@H]2OC=C[C@H]3[C@H](O)[C@@H]4O[C@]4(COc4ccc(C(F)(F)F)cc4)[C@@H]23)[C@H](O)[C@@H](O)[C@@H]1O
H9c2 [1]
  viability at 50 µM: 72%
H9c2 [2]
  Activity: Active; Exhibited Superior Protective Efficacy Than Catal-Pol
Cardiac muscle cell
  Activity: Active; Exhibited Moderate Effect
Mus musculus [3]
  Activity: Active
Mus musculus [4]
  Activity: Active
H9c2 [5]
  inhibition: Active
H9c2 [6]
  inhibition: Active
Mus musculus [7]
  inhibition: Dose-dependent-effect
CYP1A2
  inhibition at 10 min: 8%
CYP3A4
  inhibition at 10 min: 0.4%
[8]
  inhibition (INH): Not_active
[9]
  Cmax: 2710 ng/mL
[10]
  half-life: 0.95 h
[11]
  Tmax: 1.42 h
[12]
  MRT last at 24 h: 2.43 h
